The values that follow come from patent US12391679B2, “Benzamide-substituted bicyclic imidazo- and pyrazolo-fused -pyridine, -pyrimide, and -pyridazine compounds for treatment of inflammatory diseases” (ONCO3R Therapeutics BV, priority 2019, dated 2025).

pEC50, pIC50: −log10 of the molar value.

In general, pIC50 refers to the IC50 on a negative log10 scale, so that one unit is a factor of ten. The low end stands for a high IC50, the high end for a low IC50. The term pEC50 denotes −log10 of the EC50, conventionally taken in molar units. Lower therefore signals a high EC50.

The target of one test is T1, SIK3 (Homo sapiens, UniProt Q9Y2K2).
T1 construct: purchased SignalChem S12-11G-100
T1 sequence (Q9Y2K2 59-365 limits assumed): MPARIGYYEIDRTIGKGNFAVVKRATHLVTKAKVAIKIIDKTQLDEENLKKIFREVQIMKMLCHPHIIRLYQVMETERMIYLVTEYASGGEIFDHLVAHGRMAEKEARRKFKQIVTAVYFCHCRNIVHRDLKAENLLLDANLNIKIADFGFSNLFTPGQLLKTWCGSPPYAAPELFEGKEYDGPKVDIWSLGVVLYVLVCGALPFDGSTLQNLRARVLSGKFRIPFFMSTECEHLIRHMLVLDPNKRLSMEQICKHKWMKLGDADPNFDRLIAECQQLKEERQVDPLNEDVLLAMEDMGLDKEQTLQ
The test can be described thus: ADP-Glo kinase assay, SIK3. The class given is biochemical. The essentials: (§1)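 Each SIK isoform is incubated with substrate and ATP for 2 h at room temperature, after which residual ATP is depleted and the ADP formed is quantified by luminescence.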
(In general: ADP-Glo first removes unused ATP, then detects ADP through luciferase.)

A further test has as its target T2, SIK1 (Homo sapiens, UniProt P57059).
T2 construct: purchased Carna Biosciences 02-131
The experiment in a line: ADP-Glo kinase assay, SIK1. The test is classed as biochemical. The essentials: as §1

Test [1] deals with LPS-induced TNFα in monocytes. The test can be described thus: Monocytes assay: LPS-triggered TNFα (ELISA). The test is classed as cell-based, human. The following applies: Homo sapiens, Monocyte, LPS-triggered TNFα inhibition. The protocol: This assay evaluates illustrative compounds of the invention for their inhibition of LPS-induced TNFα and LPS triggered IL-10 secretion in monocytes.
PBMCs are isolated from human blood samples (buffycoats). The buffy coat is aseptically transferred into a 50 mL Falcon tube, and diluted 1/2 in PBS. Falcon tubes are filled with 20 mL Lymphoprep™, on top of which 25 mL of the buffy coat is carefully added, tubes are centrifuged for 35 min at 400 g in temperature controlled centrifuge, without brake, at 25° C. PBMCs are aspirated from the white interface layer between sample and Lymphoprep™. PBMCs are washed five times in PBS.
PBMCs are centrifuged at 300×g for 10 min and resuspended at a density of 1.0*10^7 cells/80 μL Miltenyi buffer (PBS, pH 7.4, 1% FBS, 2 mM EDTA).
Starting from this point of the protocol all steps are performed on ice. 20 μL of CD14+ micro-beads are added per 1.0*10^7 cells, the tube is mixed and incubated for 15 min in the fridge at 4° C. Cell suspension volume is adjusted to total volume of 100 mL using Miltenyi buffer, mixed gently and subsequently centrifuged for 10 min at 300×g. Supernatant is discarded and cell pellet is resuspended in 12 mL of Miltenyi buffer.
Four LS columns are placed in the MACS Separator (magnet) from Miltenyi Biotec, and are prewet by rinsing with 3 mL of MACS buffer per column. Three mL of cell suspension is added onto the column (max 1*10^8 of labelled cells/column), and columns are subsequently washed 3 times with 3 mL of Miltenyi buffer.
The columns are removed from the magnets, and 5 mL of Miltenyi buffer are added to the column to flush out the CD14+ fraction by pushing the plunger into the column. The flushed fractions are collected in a fresh 50 mL Falcon and volume is adjusted to 30 mL using Miltenyi buffer, cells are centrifuged for 10 min at 300×g. The obtained cell pellet is resuspended in 10 mL RPMI w/o FBS, and cell density is determined using a hematologic analyser (Sysmex XS-500i).
A compound dilution plate is made in 100% DMSO by 3-fold dilution of 10 mM stock solution. An intermediate dilution plate (10× final concentration) is made by diluting the compound dilution plate 50-fold in RPMI medium.
10 μL of the 10× final concentration compound is added to the cells and incubated for 1 h at 37° C. before addition of trigger. No trigger conditions/trigger conditions are spiked with equal final DMSO concentrations of 0.2% DMSO. 10 μL of 10×LPS (final conc. 200 ng/mL) solution are added to all wells except for the ‘no trigger wells’ where 10 μL medium is added. Supernatant is collected after 4 h of LPS triggering.
The plate is then washed once with PBST (PBS+0.05% Tween20) and once with PBS followed by the addition of 100 μL of blocking buffer (1% Bovine Serum Albumin (BSA)-5% Sucrose) and plates are sealed and incubated for at least 4 h at RT. After washing the plate once with PBST and once with PBS, […]. Plates are washed twice with PBST, and once with PBS, after which 35 μL of the detection antibody is added (final concentration 0.25 μg/mL diluted in dilution buffer) and plates are incubated for at least 2 h at RT. Plates are washed twice with PBST, and once with PBS, whereafter 35 μL of Strep-HRP conjugate (0.5 μg/mL final concentration diluted in dilution buffer) is added. Plates are incubated in the dark, at RT for at least 45 min but no longer than 1 h. Plates are washed twice with PBST, and once with PBS. Thereafter, 50 μL of luminol substrate is added to each well (prepared according to manufacturer's instructions), and incubated for 5 min at RT protected from light.
To measure the inhibition of LPS induced TNFα, percentage inhibition (PIN) values are calculated for all concentrations tested, compared to controls.

In the next test the target is T3, SIK2 (Homo sapiens, UniProt Q9H0K1).
T3 construct: purchased ThermoFisher Scientific PV4792
T3 sequence (Q9H0K1 whole entry): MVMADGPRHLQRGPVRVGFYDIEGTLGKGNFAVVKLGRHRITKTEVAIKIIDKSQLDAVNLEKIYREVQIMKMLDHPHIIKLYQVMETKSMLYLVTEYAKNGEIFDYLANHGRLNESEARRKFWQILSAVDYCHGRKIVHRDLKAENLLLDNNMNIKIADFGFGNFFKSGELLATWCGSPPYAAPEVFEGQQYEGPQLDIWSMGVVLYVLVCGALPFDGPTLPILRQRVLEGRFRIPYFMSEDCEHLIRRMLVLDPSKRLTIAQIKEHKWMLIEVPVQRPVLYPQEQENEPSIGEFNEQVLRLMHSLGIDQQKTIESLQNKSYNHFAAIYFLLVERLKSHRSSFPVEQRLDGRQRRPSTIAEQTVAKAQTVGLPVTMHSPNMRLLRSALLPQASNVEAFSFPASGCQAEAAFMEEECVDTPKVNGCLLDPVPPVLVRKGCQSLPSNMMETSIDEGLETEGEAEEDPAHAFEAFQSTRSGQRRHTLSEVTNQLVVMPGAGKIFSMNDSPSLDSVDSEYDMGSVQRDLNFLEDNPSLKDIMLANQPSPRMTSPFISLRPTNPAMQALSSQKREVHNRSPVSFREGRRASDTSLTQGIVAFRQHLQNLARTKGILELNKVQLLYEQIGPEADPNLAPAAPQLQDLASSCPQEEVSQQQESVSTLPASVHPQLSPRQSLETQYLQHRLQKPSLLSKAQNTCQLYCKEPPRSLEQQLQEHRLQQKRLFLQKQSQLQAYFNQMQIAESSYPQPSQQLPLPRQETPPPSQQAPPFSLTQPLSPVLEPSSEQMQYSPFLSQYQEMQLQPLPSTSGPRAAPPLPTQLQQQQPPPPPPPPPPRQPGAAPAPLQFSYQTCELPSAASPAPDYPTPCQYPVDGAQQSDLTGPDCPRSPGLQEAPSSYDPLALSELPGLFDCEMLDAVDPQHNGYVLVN
The test can be described thus: ADP-Glo kinase assay, SIK2. The class given is biochemical. The essentials: as §1

T2 sequence (P57059 whole entry): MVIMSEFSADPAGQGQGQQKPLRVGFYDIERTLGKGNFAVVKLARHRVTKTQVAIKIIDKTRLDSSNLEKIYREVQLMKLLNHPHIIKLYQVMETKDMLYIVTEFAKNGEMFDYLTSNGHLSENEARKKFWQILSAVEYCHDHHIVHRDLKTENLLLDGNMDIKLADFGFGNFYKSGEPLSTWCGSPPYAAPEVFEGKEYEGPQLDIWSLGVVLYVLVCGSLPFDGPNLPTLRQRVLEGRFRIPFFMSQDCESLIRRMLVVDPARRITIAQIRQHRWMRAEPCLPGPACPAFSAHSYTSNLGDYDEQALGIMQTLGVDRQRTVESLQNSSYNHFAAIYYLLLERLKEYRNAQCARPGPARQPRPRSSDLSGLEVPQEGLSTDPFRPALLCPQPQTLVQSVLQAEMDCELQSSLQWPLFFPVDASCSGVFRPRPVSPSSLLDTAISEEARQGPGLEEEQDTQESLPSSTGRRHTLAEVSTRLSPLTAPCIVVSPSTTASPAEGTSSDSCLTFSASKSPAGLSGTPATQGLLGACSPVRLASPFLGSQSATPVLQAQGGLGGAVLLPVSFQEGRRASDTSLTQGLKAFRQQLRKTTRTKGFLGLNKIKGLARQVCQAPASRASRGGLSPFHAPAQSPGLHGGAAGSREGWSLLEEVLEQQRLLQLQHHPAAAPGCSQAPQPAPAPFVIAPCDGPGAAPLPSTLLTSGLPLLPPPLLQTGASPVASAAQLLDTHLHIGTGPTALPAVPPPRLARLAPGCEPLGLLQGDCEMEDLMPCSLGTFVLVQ

As for `COc1cc(-c2cnc3cc(C4(O)CCOC4)ccn23)cc(OC(F)F)c1C(=O)NC1CC1` (stereo not drawn) [Cpd 213, N-cyclopropyl-2-(difluoromethoxy)-4-[7-(3-hydroxytetrahydrofuran-3-yl)imidazo[1,2-a]pyridin-3-yl]-6-methoxy-benzamide], the pIC50 was 7.00 to 8.00 at SIK3, < 6.30 at SIK1 and < 6.30 on SIK2. In test [1], the negative logarithm of the EC50 (pEC50) is 6.00 to 7.00.

Turning to `COc1cc(-c2cnc3cc(C(C)(O)CC#N)ccn23)cc(OC(F)F)c1C(=O)NC1CC1` (stereo not drawn) [Cpd 179, 4-[7-(2-cyano-1-hydroxy-1-methyl-ethyl)imidazo[1,2-a]pyridin-3-yl]-N-cyclopropyl-2-(difluoromethoxy)-6-methoxy-benzamide], the pIC50 against SIK3, against SIK1 and at SIK2 was 8.00 to 11.00 in each case. For the same molecule, the pEC50 in test [1] was 7.00 to 10.00.

On to `COC(=O)NC1(c2ccc3c(-c4cc(OC)c(C(=O)N[C@@H]5C[C@@H]5F)c(OC(F)F)c4)cnn3c2)CCC1` [Cpd 272, methyl N-[1-[3-[3-(difluoromethoxy)-4-[[(1R,2S)-2-fluorocyclopropyl]carbamoyl]-5-methoxy-phenyl]pyrazolo[1,5-a]pyridin-6-yl]cyclobutyl]carbamate], for which the negative-log IC50 (pIC50) at SIK3 is 7.00 to 8.00; at SIK1, < 6.30; against SIK2, < 6.30. The molecule further had a pEC50 in test [1] of 6.00 to 7.00.

For `CNC(=O)C1(c2ccc3c(-c4cc(OC)c(C(=O)N[C@@H]5C[C@@H]5F)c(OC(F)F)c4)cnn3c2)CCC1` [Cpd 273, 2-(difluoromethoxy)-N-[(1R,2S)-2-fluorocyclopropyl]-6-methoxy-4-[6-[1-(methylcarbamoyl)cyclobutyl]pyrazolo[1,5-a]pyridin-3-yl]benzamide], the negative logarithm of the IC50 (pIC50) on SIK3 is 7.00 to 8.00; at SIK1, < 6.30; against SIK2 it was < 6.30. This molecule had a negative logarithm of the EC50 (pEC50) in test [1] of 6.00 to 7.00.

Regarding `COc1cc(-c2cnc3cc(C(C)(C)C4CCO4)ccn23)cc(OC(F)F)c1C(=O)NC1CC1` (stereo not drawn) [Cpd 229, N-cyclopropyl-2-(difluoromethoxy)-6-methoxy-4-[7-[1-methyl-1-(oxetan-2-yl)ethyl]imidazo[1,2-a]pyridin-3-yl]benzamide], the pIC50 was 7.00 to 8.00 at SIK3, < 6.30 against SIK1 and < 6.30 on SIK2. The negative logarithm of the EC50 (pEC50) in test [1] is 6.00 to 7.00.

`COc1cc(-c2cnc3cc(C(C)(O)Cn4cccn4)ccn23)cc(OC(F)F)c1C(=O)NC1CC1` (stereo not drawn) [Cpd 192, N-cyclopropyl-2-(difluoromethoxy)-4-[7-(1-hydroxy-1-methyl-2-pyrazol-1-yl-ethyl)imidazo[1,2-a]pyridin-3-yl]-6-methoxy-benzamide]: the pIC50 was 7.00 to 8.00 against SIK3, < 6.30 on SIK1 and < 6.30 at SIK2. This molecule gave a negative-log EC50 (pEC50) in test [1] of 6.00 to 7.00.

As to `CNC(=O)COCC(C)(C)c1ccc2c(-c3cc(OC)c(C(=O)N[C@@H]4C[C@@H]4F)c(OC(F)F)c3)cnn2c1` [Cpd 253, 2-(difluoromethoxy)-4-[6-[1,1-dimethyl-2-[2-(methylamino)-2-oxo-ethoxy]ethyl]pyrazolo[1,5-a]pyridin-3-yl]-N-[(1R,2S)-2-fluorocyclopropyl]-6-methoxy-benzamide], the figures for the pIC50 against SIK3, against SIK1 and at SIK2 were 8.00 to 11.00, < 6.30 and < 6.30, respectively. Besides, in test [1], the pEC50 is 6.00 to 7.00.

As to `COc1cc(-c2cnc3cc(C4(OC)COC4)ccn23)cc(OC(F)F)c1C(=O)NC1CC1` [Cpd 212, N-cyclopropyl-2-(difluoromethoxy)-6-methoxy-4-[7-(3-methoxyoxetan-3-yl)imidazo[1,2-a]pyridin-3-yl]benzamide], the negative-log IC50 (pIC50) was 7.00 to 8.00 at SIK3, < 6.30 at SIK1 and < 6.30 on SIK2. This molecule had a negative logarithm of the EC50 (pEC50) in test [1] of 6.00 to 7.00.

In the case of `COc1cc(-c2cnn3cc(C(C)(C)OCCN4CCOCC4)ccc23)cc(OC(F)F)c1C(=O)N[C@@H]1C[C@@H]1F` [Cpd 255, 2-(difluoromethoxy)-N-[(1R,2S)-2-fluorocyclopropyl]-6-methoxy-4-[6-[1-methyl-1-(2-morpholinoethoxy)ethyl]pyrazolo[1,5-a]pyridin-3-yl]benzamide], the pIC50 at SIK3 was 7.00 to 8.00; against SIK1, < 6.30; against SIK2, < 6.30. In test [1], the pEC50 was 6.00 to 7.00.

For `COc1cc(-c2cnc3cc(C(C)(C)C(C)O)ccn23)cc(OC)c1C(=O)NCC(F)(F)F` (stereo not drawn) [Cpd 62, 4-[7-(2-hydroxy-1,1-dimethyl-propyl)imidazo[1,2-a]pyridin-3-yl]-2,6-dimethoxy-N-(2,2,2-trifluoroethyl)benzamide], the negative logarithm of the IC50 (pIC50) at SIK3 was 7.00 to 8.00; against SIK1, < 6.30; at SIK2 it was < 6.30. In addition, the pEC50 in test [1] was 5.30 to 6.00.

Consider `COc1cc(-c2cnn3cc(C4(C#N)CCC4)ccc23)cc(OC(F)F)c1C(=O)N[C@@H]1C[C@@H]1F` [Cpd 250, 4-[6-(1-cyanocyclobutyl)pyrazolo[1,5-a]pyridin-3-yl]-2-(difluoromethoxy)-N-[(1R,2S)-2-fluorocyclopropyl]-6-methoxy-benzamide], for which the pIC50 was 8.00 to 11.00 on SIK3, < 6.30 at SIK1 and 6.30 to 7.00 on SIK2. The pEC50 in test [1] was 6.00 to 7.00.

On to `COc1cc(-c2cnn3cc(C(C)(C)COCC(=O)N(C)C)ccc23)cc(OC(F)F)c1C(=O)N[C@@H]1C[C@@H]1F` [Cpd 251, 2-(difluoromethoxy)-4-[6-[2-[2-(dimethylamino)-2-oxo-ethoxy]-1,1-dimethyl-ethyl]pyrazolo[1,5-a]pyridin-3-yl]-N-[(1R,2S)-2-fluorocyclopropyl]-6-methoxy-benzamide], for which the pIC50 against SIK3 is 8.00 to 11.00; against SIK1, < 6.30; on SIK2, < 6.30. This molecule also showed a pEC50 in test [1] of 6.00 to 7.00.

In the case of `COc1cc(-c2cnc3cc(C4(O)COC4)ccn23)cc(OC(F)F)c1C(=O)N[C@@H]1C[C@@H]1F` [Cpd 223, 2-(difluoromethoxy)-N-[(1R,2S)-2-fluorocyclopropyl]-4-[7-(3-hydroxyoxetan-3-yl)imidazo[1,2-a]pyridin-3-yl]-6-methoxy-benzamide], the pIC50 was 7.00 to 8.00 on SIK3, < 6.30 on SIK1 and 6.30 to 7.00 at SIK2. This molecule also showed a negative-log EC50 (pEC50) in test [1] of 6.00 to 7.00.

On to `COc1cc(-c2cnn3cc(C(C)(C)NCCO)ccc23)cc(OC(F)F)c1C(=O)N[C@@H]1C[C@@H]1F` [Cpd 268, 2-(difluoromethoxy)-N-[(1R,2S)-2-fluorocyclopropyl]-4-[6-[1-(2-hydroxyethylamino)-1-methyl-ethyl]pyrazolo[1,5-a]pyridin-3-yl]-6-methoxy-benzamide], for which the pIC50 is 7.00 to 8.00 at SIK3, < 6.30 against SIK1 and < 6.30 against SIK2. The molecule also showed a pEC50 in test [1] of 6.00 to 7.00.

For `COc1cc(-c2cnc3cc(C(C)N4CCOCC4)ccn23)cc(OC(F)F)c1C(=O)NC1CC1` (stereo not drawn) [Cpd 139, N-cyclopropyl-2-(difluoromethoxy)-6-methoxy-4-[7-(1-morpholinoethyl)imidazo[1,2-a]pyridin-3-yl]benzamide], the pIC50 against SIK3 is 7.00 to 8.00; against SIK1, < 6.30; at SIK2, < 6.30. For the same molecule, the pEC50 in test [1] was 5.30 to 6.00.
